The record followed here is patent US20080234262A1 (Wyeth, priority 2007, published 2008).

Some results are limits rather than exact numbers.

The subject of one assay is breast line MDA468. Description: In vitro cell culture growth assay (MTS), MDA468. It counts as cell-based, human. Conditions: MDA468 cells, three days after drug treatment. In outline:
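Growth measured as percent of same-plate vehicle control by MTS metabolic dye conversion (A490). Breast MDA468 and prostate LNCap cells, plated a day ahead, were exposed to compounds for 3 days.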

The next assay deals with PI3K (Homo sapiens, UniProt P42336). Description: Fluorescence polarization assay for PI3K.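 Further: PI3K kinase reaction on PIP2 with ATP, 30-60 min, product sensed by GST-GRP with red probe in fluorescence polarization (mP), controls without enzyme and at zero time.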 It counts as biochemical. Conditions: PI3Kα; read-out: PI3Kα IC50. (In general: Polarisation of emitted light reports the rotation of a fluorescent probe.)
In another assay the test system is prostate line LNCap. Description: In vitro cell culture growth assay (MTS), LNCap.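 Further: viable cell density read by absorbance at 490 nm, growth expressed as percent of vehicle-treated cells on the same plate.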 It is filed as cell-based, human. Conditions: LNCap cells, three days after drug treatment.

Chain of PI3K (P42336 whole entry): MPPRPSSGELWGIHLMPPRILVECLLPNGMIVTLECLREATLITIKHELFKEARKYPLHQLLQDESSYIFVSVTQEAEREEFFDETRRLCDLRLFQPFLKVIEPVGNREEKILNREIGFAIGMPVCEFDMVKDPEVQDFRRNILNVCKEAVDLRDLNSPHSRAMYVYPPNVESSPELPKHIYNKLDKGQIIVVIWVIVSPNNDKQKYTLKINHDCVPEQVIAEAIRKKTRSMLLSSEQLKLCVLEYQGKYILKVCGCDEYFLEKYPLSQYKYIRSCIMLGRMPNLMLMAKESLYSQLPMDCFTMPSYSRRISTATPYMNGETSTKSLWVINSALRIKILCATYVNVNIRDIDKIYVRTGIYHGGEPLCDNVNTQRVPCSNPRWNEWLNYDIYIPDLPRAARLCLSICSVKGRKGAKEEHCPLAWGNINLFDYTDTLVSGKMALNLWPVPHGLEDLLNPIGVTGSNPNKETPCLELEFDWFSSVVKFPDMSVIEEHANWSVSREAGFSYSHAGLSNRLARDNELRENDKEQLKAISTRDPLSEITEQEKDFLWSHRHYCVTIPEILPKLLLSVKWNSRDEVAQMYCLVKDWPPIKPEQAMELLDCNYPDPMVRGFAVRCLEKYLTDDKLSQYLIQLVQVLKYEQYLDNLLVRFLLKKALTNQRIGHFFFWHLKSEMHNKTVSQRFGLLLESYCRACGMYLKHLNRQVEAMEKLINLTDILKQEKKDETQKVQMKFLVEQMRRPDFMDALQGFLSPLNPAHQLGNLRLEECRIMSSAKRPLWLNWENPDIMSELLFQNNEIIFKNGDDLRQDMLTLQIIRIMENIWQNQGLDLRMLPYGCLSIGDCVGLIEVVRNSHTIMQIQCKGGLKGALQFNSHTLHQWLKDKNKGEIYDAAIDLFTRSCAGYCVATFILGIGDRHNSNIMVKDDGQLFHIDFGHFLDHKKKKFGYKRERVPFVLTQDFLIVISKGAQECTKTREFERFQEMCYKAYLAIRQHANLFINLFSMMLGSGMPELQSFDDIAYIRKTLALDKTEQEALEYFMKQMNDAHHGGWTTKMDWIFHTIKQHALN
Chain of PI3K (P27986 whole entry partner): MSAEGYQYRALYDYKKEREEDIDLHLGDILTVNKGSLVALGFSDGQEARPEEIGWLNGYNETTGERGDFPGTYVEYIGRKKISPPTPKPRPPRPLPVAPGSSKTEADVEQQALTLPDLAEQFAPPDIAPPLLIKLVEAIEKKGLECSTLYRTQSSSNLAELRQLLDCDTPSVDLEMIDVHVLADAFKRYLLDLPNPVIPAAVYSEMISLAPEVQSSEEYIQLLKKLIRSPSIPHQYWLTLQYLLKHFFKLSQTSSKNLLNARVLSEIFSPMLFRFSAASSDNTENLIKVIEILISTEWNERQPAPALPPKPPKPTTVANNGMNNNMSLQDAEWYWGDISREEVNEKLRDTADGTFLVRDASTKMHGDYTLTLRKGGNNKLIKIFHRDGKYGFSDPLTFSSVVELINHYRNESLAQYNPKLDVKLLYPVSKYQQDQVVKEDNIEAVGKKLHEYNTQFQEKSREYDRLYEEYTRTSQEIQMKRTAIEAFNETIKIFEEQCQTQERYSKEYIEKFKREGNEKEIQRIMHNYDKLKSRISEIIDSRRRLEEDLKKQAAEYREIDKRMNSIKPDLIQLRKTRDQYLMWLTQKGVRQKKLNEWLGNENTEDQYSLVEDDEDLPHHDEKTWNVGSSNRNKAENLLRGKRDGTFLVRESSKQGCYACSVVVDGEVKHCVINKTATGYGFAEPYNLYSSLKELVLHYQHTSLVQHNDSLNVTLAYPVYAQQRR

In the case of `CC(C)(C)OC(=O)N1CCC(n2ncc3c(N4CCOCC4)nc(-c4ccc(NC(=O)Nc5ccc(CCO)cc5)cc4)nc32)CC1` [Compound 954, tert-butyl 4-{6-[4-({[4-(2-hydroxyethyl)phenyl]carbamoyl}amino)phenyl]-4-morpholin-4-yl-1H-pyrazolo[3,4-d]pyrimidin-1-yl}piperidine-1-carboxylate], the half-maximal inhibitory concentration (IC50) is 100 nM in the assay on breast line MDA468 (Homo sapiens, 72 h); 10 nM at PI3K; 9 nM with prostate line LNCap (Homo sapiens, LNCaP, 72 h).

In the case of `O=C(Nc1ccc(-c2nc(N3CCOCC3)c3cnn(C4CCN(CC(F)(F)F)CC4)c3n2)cc1)NC1CC1` [Compound 788, 1-cyclopropyl-3-(4-{4-morpholin-4-yl-1-[1-(2,2,2-trifluoroethyl)piperidin-4-yl]-1H-pyrazolo[3,4-d]pyrimidin-6-yl}phenyl)urea], the IC50 was 1600 nM in the assay with breast line MDA468 (Homo sapiens, 72 h); 734 nM at PI3K; 120 nM in the assay with prostate line LNCap (Homo sapiens, LNCaP, 72 h).

`O=C(Nc1ccc(-c2nc(N3CCOCC3)c3cnn(-c4ccccc4)c3n2)cc1)C1CCNCC1` [Compound 140]: the IC50 in the assay on breast line MDA468 (Homo sapiens, 72 h) turned out to be 1300 nM; on PI3K, 131 nM; in the assay with prostate line LNCap (Homo sapiens, LNCaP, 72 h), 2900 nM.

`O=C(NCCO)Nc1ccc(-c2nc(N3CCOCC3)c3cnn(C4CCN(C(=O)c5ccccc5)CC4)c3n2)cc1` [Example 385, 1-{4-[1-(1-benzoylpiperidin-4-yl)-4-morpholin-4-yl-1H-pyrazolo[3,4-d]pyrimidin-6-yl]phenyl}-3-(2-hydroxyethyl)urea]: the IC50 with breast line MDA468 (Homo sapiens, 72 h) was determined as 700 nM; on PI3K, 229 nM; with prostate line LNCap (Homo sapiens, LNCaP, 72 h), 800 nM.

`COc1ccc(-c2nc(N3CCOCC3)c3cnn(-c4ccccc4)c3n2)cn1` [Example 4]: the IC50 is 38000 nM in the assay on breast line MDA468 (Homo sapiens, 72 h); 5500 nM on PI3K; 20000 nM in the assay on prostate line LNCap (Homo sapiens, LNCaP, 72 h).

On to `Oc1cccc(-c2nc(N3CCOCC3)c3cnn(C4CCN(Cc5ccc[nH]5)CC4)c3n2)c1` [Example 14], for which the IC50 was determined as 600 nM in the assay on breast line MDA468 (Homo sapiens, 72 h); 20 nM at PI3K; 110 nM in the assay on prostate line LNCap (Homo sapiens, LNCaP, 72 h).

With `CNC(=O)Nc1ccc(-c2nc(N3CCOCC3)c3cnn(C4CCN(C(=O)c5cnccc5C)CC4)c3n2)cc1` [Example 419, 1-methyl-3-[4-(1-{1-[(4-methylpyridin-3-yl)carbonyl]piperidin-4-yl}-4-morpholin-4-yl-1H-pyrazolo[3,4-d]pyrimidin-6-yl)phenyl]urea], the IC50 came out at 400 nM with breast line MDA468 (Homo sapiens, 72 h); 231 nM on PI3K; 320 nM in the assay with prostate line LNCap (Homo sapiens, LNCaP, 72 h).

In the case of `COCCCNC(=O)Nc1ccc(-c2nc(N3CCOCC3)c3cnn(C4CCN(Cc5ccccc5)CC4)c3n2)cc1` [Compound 270, 1-{4-[1-(1-benzylpiperidin-4-yl)-4-morpholin-4-yl-1H-pyrazolo[3,4-d]pyrimidin-6-yl]phenyl}-3-(3-methoxypropyl)urea], the IC50 stood at 3200 nM with breast line MDA468 (Homo sapiens, 72 h); 753 nM on PI3K; 600 nM with prostate line LNCap (Homo sapiens, LNCaP, 72 h).

Consider `CC(C)C(=O)N1CCC(n2ncc3c(N4CCOCC4)nc(-c4ccc(NC(=O)Nc5cccnc5)cc4)nc32)CC1` [Compound 828, 1-{4-[1-(1-isobutyrylpiperidin-4-yl)-4-morpholin-4-yl-1H-pyrazolo[3,4-d]pyrimidin-6-yl]phenyl}-3-pyridin-3-ylurea], for which the IC50 with breast line MDA468 (Homo sapiens, 72 h) turned out to be 330 nM; at PI3K it was 50 nM; with prostate line LNCap (Homo sapiens, LNCaP, 72 h) it was 120 nM.

As to `CNC(=O)Nc1ccc(-c2nc(N3CCOCC3)c3cnn(C4CCN(CC(F)(F)F)CC4)c3n2)cc1` [Example 470, 1-methyl-3-(4-{4-morpholin-4-yl-1-[1-(2,2,2-trifluoroethyl)piperidin-4-yl]-1H-pyrazolo[3,4-d]pyrimidin-6-yl}phenyl)urea], the IC50 stood at 300 nM with breast line MDA468 (Homo sapiens, 72 h); 187 nM on PI3K; 56 nM in the assay on prostate line LNCap (Homo sapiens, LNCaP, 72 h).

As to `O=C(NCCO)Nc1ccc(-c2nc(N3CCOCC3)c3cnn(C4CCN(C(=O)c5cccnc5)CC4)c3n2)cc1` [Example 304, 1-(2-hydroxyethyl)-3-(4-{4-morpholin-4-yl-1-[1-(pyridin-3-ylcarbonyl)piperidin-4-yl]-1H-pyrazolo[3,4-d]pyrimidin-6-yl}phenyl)urea], the IC50 stood at 9000 nM with breast line MDA468 (Homo sapiens, 72 h); 220 nM on PI3K; 7500 nM in the assay with prostate line LNCap (Homo sapiens, LNCaP, 72 h).

In the case of `OC1CCC(n2ncc3c(N4CCOCC4)nc(-c4ccc5[nH]ccc5c4)nc32)CC1` (stereo not drawn) [Compound 152, 4-[6-(1H-indol-5-yl)-4-morpholin-4-yl-1H-pyrazolo[3,4-d]pyrimidin-1-yl]cyclohexanol], the IC50 with breast line MDA468 (Homo sapiens, 72 h) is 2300 nM; at PI3K it was 1130 nM; with prostate line LNCap (Homo sapiens, LNCaP, 72 h), 600 nM.

Regarding `c1ccc(CN2CCC(n3ncc4c(N5CCOCC5)nc(-c5cccc6cc[nH]c56)nc43)CC2)cc1` [Example 72], the IC50 in the assay with breast line MDA468 (Homo sapiens, 72 h) turned out to be 6000 nM; on PI3K it was 520 nM; in the assay on prostate line LNCap (Homo sapiens, LNCaP, 72 h) it was 9500 nM.

Take `O=C(Nc1ccc(-c2nc(N3CCOCC3)c3cnn(CC(F)(F)F)c3n2)cc1)Nc1cccnc1` [Compound 792, 1-{4-[4-morpholin-4-yl-1-(2,2,2-trifluoroethyl)-1H-pyrazolo[3,4-d]pyrimidin-6-yl]phenyl}-3-pyridin-3-ylurea]: the IC50 in the assay on breast line MDA468 (Homo sapiens, 72 h) was below 27 nM; at PI3K it was 10 nM; with prostate line LNCap (Homo sapiens, LNCaP, 72 h), below 27 nM.

With `O=C(C1CC1)N1CCC(n2ncc3c(N4CCOCC4)nc(-c4cccc(O)c4)nc32)CC1` [Example 21], the IC50 with breast line MDA468 (Homo sapiens, 72 h) is 1400 nM; at PI3K, 98 nM; in the assay with prostate line LNCap (Homo sapiens, LNCaP, 72 h), 500 nM.

For the molecule `COC(=O)N1CCC(n2ncc3c(N4CCOCC4)nc(-c4ccc(N/C(=N/C#N)Oc5ccccc5)cc4)nc32)CC1` [Compound 949, methyl 4-[6-(4-{[(Z)-(cyanoimino)(phenoxy)methyl]amino}phenyl)-4-morpholin-4-yl-1H-pyrazolo[3,4-d]pyrimidin-1-yl]piperidine-1-carboxylate], the IC50 in the assay with breast line MDA468 (Homo sapiens, 72 h) amounted to 25000 nM; on PI3K it was 1890 nM; in the assay with prostate line LNCap (Homo sapiens, LNCaP, 72 h), 9800 nM.

In the case of `COC(=O)N1CCC(n2ncc3c(N4CCOCC4)nc(-c4ccc(NC(=O)OCCN5CCOCC5)cc4)nc32)CC1` [Compound 906, methyl 4-[4-morpholin-4-yl-6-(4-{[(2-morpholin-4-ylethoxy)carbonyl]amino}phenyl)-1H-pyrazolo[3,4-d]pyrimidin-1-yl]piperidine-1-carboxylate], the IC50 in the assay with breast line MDA468 (Homo sapiens, 72 h) was determined as 23000 nM; at PI3K it was 2040 nM; with prostate line LNCap (Homo sapiens, LNCaP, 72 h) it was 5200 nM.

Turning to `COC(=O)N1CCC(n2ncc3c(N4CCOC(C)C4)nc(-c4ccc(NC(=O)Nc5ccccc5)cc4)nc32)CC1` (stereo not drawn) [Compound 848, methyl 4-[6-{4-[(anilinocarbonyl)amino]phenyl}-4-(2-methylmorpholin-4-yl)-1H-pyrazolo[3,4-d]pyrimidin-1-yl]piperidine-1-carboxylate], the IC50 in the assay on breast line MDA468 (Homo sapiens, 72 h) amounted to 720 nM; on PI3K, 60 nM; in the assay with prostate line LNCap (Homo sapiens, LNCaP, 72 h), 62 nM.

Take `CC(C)(C)OC(=O)N1CCC(n2ncc3c(N4CCOCC4)nc(-c4ccc(NC(=O)Nc5ccccc5)cc4)nc32)CC1` [Compound 768, tert-butyl 4-(6-{4-[(anilinocarbonyl)amino]phenyl}-4-morpholin-4-yl-1H-pyrazolo[3,4-d]pyrimidin-1-yl)piperidine-1-carboxylate]: the IC50 in the assay with breast line MDA468 (Homo sapiens, 72 h) is 710 nM; on PI3K, 74 nM; with prostate line LNCap (Homo sapiens, LNCaP, 72 h), 205 nM.

For `c1ccc(CN2CCC(n3ncc4c(N5CCOCC5)nc(-c5ccc6cc[nH]c6c5)nc43)CC2)cc1` [Compound 49], the IC50 with breast line MDA468 (Homo sapiens, 72 h) stood at 5800 nM; at PI3K, 1270 nM; with prostate line LNCap (Homo sapiens, LNCaP, 72 h) it was 2100 nM.

`CC(=O)Nc1ccc(-c2nc(N3CCOCC3)c3cnn(-c4ccccc4)c3n2)cn1` [Compound 148]: the IC50 with breast line MDA468 (Homo sapiens, 72 h) is 60000 nM; on PI3K, 162 nM; in the assay with prostate line LNCap (Homo sapiens, LNCaP, 72 h), 60000 nM.

Consider `CNC(=O)Nc1ccc(-c2nc(N3CCOCC3)c3cnn(C4CCN(C(=O)N(C)C)CC4)c3n2)cc1` [Compound 717, N,N-dimethyl-4-(6-{4-[(methylcarbamoyl)amino]phenyl}-4-morpholin-4-yl-1H-pyrazolo[3,4-d]pyrimidin-1-yl)piperidine-1-carboxamide], for which the IC50 in the assay with breast line MDA468 turned out to be 480 nM; at PI3K, 209 nM; in the assay on prostate line LNCap, 200 nM.

In the case of `O=C(NO)Nc1ccc(-c2nc(N3CCOCC3)c3cnn(C4CCN(Cc5ccccc5)CC4)c3n2)cc1` [Compound 310, 1-{4-[1-(1-benzylpiperidin-4-yl)-4-morpholin-4-yl-1H-pyrazolo[3,4-d]pyrimidin-6-yl]phenyl}-3-hydroxyurea], the IC50 stood at 1100 nM in the assay with breast line MDA468 (Homo sapiens, 72 h); 199 nM on PI3K; 100 nM in the assay on prostate line LNCap (Homo sapiens, LNCaP, 72 h).

On to `CNC(=O)Nc1ccc(-c2nc(N3CCOCC3)c3cnn(C4CCN(Cc5ccc(F)nc5)CC4)c3n2)cc1` [Compound 632, 1-[4-(1-{1-[(6-fluoropyridin-3-yl)methyl]piperidin-4-yl}-4-morpholin-4-yl-1H-pyrazolo[3,4-d]pyrimidin-6-yl)phenyl]-3-methylurea], for which the results for the IC50 with breast line MDA468, on PI3K and in the assay with prostate line LNCap were 120 nM, 108 nM and 35 nM, respectively.

For the molecule `CNC(=O)Nc1ccc(-c2nc(N3CCOCC3)c3cnn(C4CCN(Cc5ccc(C)cc5)CC4)c3n2)cc1` [Compound 675, 1-methyl-3-(4-{1-[1-(4-methylbenzyl)piperidin-4-yl]-4-morpholin-4-yl-1H-pyrazolo[3,4-d]pyrimidin-6-yl}phenyl)urea], the figures for the IC50 with breast line MDA468, on PI3K and in the assay with prostate line LNCap were 110 nM, 25 nM and below 27 nM, respectively.

For the molecule `CNc1ccc(-c2nc(N3CCOCC3)c3cnn(-c4ccccc4)c3n2)cc1` [Compound 128], the IC50 amounted to 60000 nM in the assay on breast line MDA468 (Homo sapiens, 72 h); 384 nM on PI3K; 4800 nM with prostate line LNCap (Homo sapiens, LNCaP, 72 h).

For the molecule `Oc1cccc(-c2nc(N3CCOCC3)c3cnn(C4CCN(CC5CC5)CC4)c3n2)c1` [Example 13], the IC50 was 1500 nM in the assay with breast line MDA468 (Homo sapiens, 72 h); 34 nM at PI3K; 270 nM in the assay with prostate line LNCap (Homo sapiens, LNCaP, 72 h).

By IC50 is commonly meant the concentration at which inhibition is half-maximal.
